Here are results for one molecule from US5770734A, “N-substituted-2-aminoquinolines useful for treating hypofunction of the cholinergic system” (American Home Products Corporation, priority 1992, dated 1998).

The test system of the assay is scopolamine-induced hyperactivity, a proposed muscarinic M1 -mediated effect. Description: Scopolamine-induced hyperactivity (locomotor activity). The class given is in vivo, rat. Conditions: for Total activity: N=10. On the procedure:
Compounds were evaluated for the ability to attenuate scopolamine-induced hyperactivity, a proposed muscarinic M1 -mediated effect. Animals were permitted to habituate for 30 minutes in locomotor activity chambers (Digiscan, Omnitech; Columbus, Ohio) in which infrared detectors were used to measure movement in 3 axes. The animals were then injected i.p. with vehicle alone, scopolamine alone (1.7 mg/kg) or both scopolamine and one dose of the test compound. Animals were then replaced in the chambers and locomotor activity was measured for an additional 1 hour period. Total activity measures (vertical+horizintal movements) were collected and statistically analyzed in four 15 minute periods.

For `O=C1CCCN1CC#CCN1CCCC1` [Oxotremorine], the minimal effective dose (Rattus norvegicus, ip, read-out: minimum effective dose) worked out at 0.3 mg/kg. Also, under “doses below 0.3 mg/kg”, the “effect on scopolamine hyperactivity at lower doses” value is “some effect of oxotremorine was seen at lower doses”. Besides, the Total activity is, setting by setting: (scopolamine + oxotremorine 0.03 mg/kg, 15 min) 3020; (scopolamine + oxotremorine 0.03 mg/kg, 30 min) 4083; (scopolamine + oxotremorine 0.03 mg/kg, 45 min) 3332; (scopolamine + oxotremorine 0.03 mg/kg, 60 min) 2265; (scopolamine + oxotremorine 0.1 mg/kg, 15 min) 5709; (scopolamine + oxotremorine 0.1 mg/kg, 30 min) 4305. Besides, the Total activity turned out to be 3725 (scopolamine + oxotremorine 0.1 mg/kg, 45 min); 2571 (scopolamine + oxotremorine 0.1 mg/kg, 60 min); 2523 (scopolamine + oxotremorine 0.3 mg/kg, 15 min); 1819 (scopolamine + oxotremorine 0.3 mg/kg, 30 min); 2351 (scopolamine + oxotremorine 0.3 mg/kg, 45 min); 1573 (scopolamine + oxotremorine 0.3 mg/kg, 60 min).
